Results as given in US8426589B2, “Process for production of quinazoline derivative” (Shionogi & Co., Ltd., priority 2008, dated 2013).

Experiment: Stability test of the crystalline form (sealed glass vial, HPLC)
Assay type: physicochemical
Protocol: The crystalline form of the compound (IV) monohydrate was sealed in a glass vial and allowed it to stand for 20 days to determine the quality change before and after the test. Under heating at 50° C. (for 21 hr) or 80° C. (for 9 hr) were also conducted.
The quality degradation was not seen for the crystalline form of the compound (IV) monohydrate after 20 days and neither at 50° C. nor 80° C.
HPLC condition: Column Unison UK-C18 3 μm;
Mobile phase: 0.1% trifuluoroacetic acid aq. in acetnitrile;
Column temperature: 30° C.
Detector: UV spectrophotometer (254 nm)

For `CC#CC(=O)c1ccc2ncnc(Nc3ccc(OCc4cccc(F)c4)c(Cl)c3)c2c1` [compound (IV) monohydrate, 4-(3-chloro-4-(3-fluorobenzyloxy)phenylamino)-6-(1-oxo-2-butyn-1-yl)quinazoline], the “remaining ratio (HPLC, peak at Retention Time 10.2 min)” value (from here on “remaining ratio”) (ca. 50° C., 15 h) was 99.2, the “remaining ratio” value (ca. 50° C., 21 h) was 99.1 and the “remaining ratio” value (ca. 50° C., Control (before the test)) was 99.4. The “remaining ratio” value (ca. 80° C., 3 h) was 99.1, the “remaining ratio” value (ca. 80° C., 9 h) was 99.1 and the “remaining ratio” value (ca. 80° C., Control (before the test)) was 99.1. The quality degradation (heating at 50° C. (for 21 hr)) was “not seen”, the quality degradation (heating at 80° C. (for 9 hr)) was “not seen” and the “remaining ratio” value (rt (ca. 22° C.), sealed in a glass vial, 20 days) was 99.3. The “remaining ratio” value (rt (ca. 22° C.), sealed in a glass vial, Control (before the test)) was 99.1 and the quality degradation (sealed in a glass vial, after 20 days) was “not seen”.
